Reference: PMC9709406 (Frontiers in Pharmacology, 2022)
“And” between values parts separate entries of the source, which are not always exact repeats. Equal values may be shown once. Read-outs that look alike come from different tables or passages of the source.

Experiments:
KYSE410 cells = experiment: MTT assay, KYSE410; type: cell-based, human; conditions: for IC50: Homo sapiens, 48 h
From the text: (§1) The human cancer cells (H1650, H1975, KYSE70, KYSE410 and KYSE450) were purchased from the Type Culture Collection of the Chinese Academy of Sciences (Shanghai, China). The human immortalized normal esophageal epithelial cell line SHEE was donated by Dr. Enmin Li from the Laboratory of Tumor Pathology (Shantou University Medical College, Shantou, Guangdong, China). Drug-resistant cells (H1650TR, H1975OR, KYSE70TR, KYSE410TR and KYSE450TR) were induced by China-US (Henan) Hormel Cancer Institute. The cellswere cultured in RPMI-1640 complete growth medium containing 100 U/mL penicillin-streptomycin and 10% FBS. Based on the above medium formula, 100 nm/L paclitaxel was added in taxol-resistant cells, 100 nm/L gefitinib was added in gefitinib-resistant cells. The cells were incubated at 37 °C in an atmosphere containing 5% of CO2. The compounds were dissolved in DMSO to make a 50 mM stock solution and were diluted to the concentration of working solutions with complete growth medium before administration.
(§2) Cells were seeded in 96-well plates with 2,200–2,500 cells/well in100 μL. One day after seeding, test compounds with the concentration between 0 and 50 μM were added with 0.1% DMSO as control. Five multiple wells for each concentration. After 48 h, MTT was added and incubated in the plate for 1–4 h in the incubator. The absorbance at 490 nm was measured using a microplate reader (Thermo).

KYSE70TR cells = experiment: MTT assay, taxol-resistant KYSE70TR; type: cell-based, human; conditions: Homo sapiens, KYSE 70 TR, MTT, resistance-inducing drug (taxol)
From the text: as §1
as §2, with “After 48 h, MTT was added and incubated in the plate for 1–4 h in the incubator.” left out

KYSE450TR cells = experiment: MTT assay, taxol-resistant KYSE450TR; type: cell-based, human; conditions: Homo sapiens, KYSE 450 TR, MTT, resistance-inducing drug (taxol)
From the text: as §1
as §2, with “After 48 h, MTT was added and incubated in the plate for 1–4 h in the incubator.” left out

KYSE410TR cells = experiment: MTT assay, taxol-resistant KYSE410TR; type: cell-based, human; conditions: Homo sapiens, KYSE 410 TR, MTT, resistance-inducing drug (taxol)
From the text: as §1
as §2, with “After 48 h, MTT was added and incubated in the plate for 1–4 h in the incubator.” left out

H1975 cells = experiment: MTT assay for cell proliferation and cytotoxicity, H1975; type: cell-based, human; conditions: Homo sapiens, NCI-H1975, 48 h, MTT, 48 h, H1975, n = 5; read-out: IC50 48 h H1975
From the text: as §1
as §2, with “After 48 h, MTT was added and incubated in the plate for 1–4 h in the incubator.” left out

SHEE cells = experiment: MTT assay, normal esophageal epithelial cell line SHEE; type: cell-based; conditions: Homo sapiens, 48 h, n = 5
From the text: as §1, §2

EGFR = target: T1, EGFR (Homo sapiens, UniProt P00533); experiment: EGFR kinase assay (ELISA); type: biochemical; conditions: 25°C
T1 construct: purchased Active MOTIF
Experimental: Kinase inhibitory activities of the compounds were evaluated using the Protein Tyrosine Kinase Assay Kit (SignalChem (British Columbia, Canada)). The kinase enzyme of EGFR was purchased from Active MOTIF. The ELISA experiments were carried out according the instructions of the kit. Active kinases were incubated with indicated compounds in 1 × reaction buffer containing 20 μM substrate at 25°C for 1 h and 2 h, respectively. The absorbance was read with a multimode plate reader (PerkinElmer, United States) at 450 nm.

KYSE450 cells = experiment: MTT assay, KYSE450; type: cell-based, human; conditions: for IC50: Homo sapiens, KYSE-450, MTT, 48 h, KYSE450, n = 5, read-out: IC50 48 h KYSE450; for absorbance 490 nm, single well / mean absorbance 490 nm (row G) / mean absorbance 490 nm minus background (row H): KYSE450
From the text: as §1, §2

H1650 cells = experiment: MTT assay for cell proliferation and cytotoxicity, H1650; type: cell-based; conditions: Homo sapiens, NCI-H1650, 48 h, H1650, n = 5
From the text: as §1, §2

KYSE70 cells = experiment: MTT assay, KYSE70; type: cell-based, human; conditions: for IC50: Homo sapiens, KYSE-70, MTT, 48 h, KYSE70, n = 5
From the text: as §1, §2

[1] = KYSE-410, MTT, KYSE410, n = 5, read-out: IC50 48 h KYSE410
[2] = concentration 12.5 (unit not given)
[3] = concentration 25 (unit not given)
[4] = concentration 50 (unit not given)
[5] = concentration 100 (unit not given)

T1 sequence (P00533 25-1210): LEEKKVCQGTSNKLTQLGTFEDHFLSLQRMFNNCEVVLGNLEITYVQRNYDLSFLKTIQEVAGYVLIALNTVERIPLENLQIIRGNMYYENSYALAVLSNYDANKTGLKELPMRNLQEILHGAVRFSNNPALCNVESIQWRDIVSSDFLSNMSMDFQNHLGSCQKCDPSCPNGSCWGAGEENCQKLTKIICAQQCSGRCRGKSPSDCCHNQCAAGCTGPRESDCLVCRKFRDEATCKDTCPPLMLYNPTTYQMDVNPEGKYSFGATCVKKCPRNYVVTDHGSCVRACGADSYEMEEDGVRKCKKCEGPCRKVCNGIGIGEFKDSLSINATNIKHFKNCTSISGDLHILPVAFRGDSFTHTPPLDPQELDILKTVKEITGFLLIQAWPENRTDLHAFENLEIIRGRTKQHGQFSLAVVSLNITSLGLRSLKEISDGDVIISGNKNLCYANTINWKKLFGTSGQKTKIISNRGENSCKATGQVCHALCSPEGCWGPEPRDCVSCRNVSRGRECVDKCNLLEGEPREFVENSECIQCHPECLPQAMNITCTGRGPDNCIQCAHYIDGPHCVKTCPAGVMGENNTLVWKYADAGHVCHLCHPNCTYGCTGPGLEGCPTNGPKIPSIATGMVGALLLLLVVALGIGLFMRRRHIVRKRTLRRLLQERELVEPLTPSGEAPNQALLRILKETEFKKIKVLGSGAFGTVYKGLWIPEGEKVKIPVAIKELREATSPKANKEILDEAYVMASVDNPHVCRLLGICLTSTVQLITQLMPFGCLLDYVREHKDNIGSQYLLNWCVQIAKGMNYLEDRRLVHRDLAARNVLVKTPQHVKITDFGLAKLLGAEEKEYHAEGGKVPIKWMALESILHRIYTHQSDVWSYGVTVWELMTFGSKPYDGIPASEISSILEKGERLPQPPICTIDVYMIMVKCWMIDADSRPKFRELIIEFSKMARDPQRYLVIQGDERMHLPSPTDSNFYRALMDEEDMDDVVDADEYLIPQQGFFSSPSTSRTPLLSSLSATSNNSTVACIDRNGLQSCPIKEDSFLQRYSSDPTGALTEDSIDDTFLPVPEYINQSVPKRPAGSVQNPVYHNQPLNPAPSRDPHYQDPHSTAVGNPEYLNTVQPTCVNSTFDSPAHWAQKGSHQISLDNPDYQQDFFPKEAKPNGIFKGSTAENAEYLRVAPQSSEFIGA

## CC(=O)O[C@H]1C(=O)[C@@]2(C)[C@H]([C@H](OC(=O)c3ccccc3)[C@]3(O)C[C@H](OC(=O)[C@H](O)[C@@H](NC(=O)c4ccccc4)c4ccccc4)C(C)=C1C3(C)C)[C@]1(OC(C)=O)CO[C@@H]1C[C@@H]2O [taxol, reference compound]
KYSE410 cells; KYSE 410, MTT, resistance-inducing drug (taxol), read-out: 48 h IC50
  IC50: 0.0524 ± 0.00345 µM
KYSE70TR cells; 24 h, read-out: 24 h IC50
  IC50: 4.92 ± 0.274 µM
KYSE70TR cells; 48 h, read-out: 48 h IC50
  IC50: 1.12 ± 0.0352 µM
KYSE450TR cells; 24 h, read-out: 24 h IC50
  IC50: 0.266 ± 0.0661 µM
KYSE450TR cells; 48 h, read-out: 48 h IC50
  IC50: 0.12 ± 0.0301 µM
KYSE410TR cells; 24 h, read-out: 24 h IC50
  IC50: 6.4 ± 0.43 µM
KYSE410TR cells; 48 h, read-out: 48 h IC50
  IC50: 1.71 ± 0.05 µM

## Clc1ccc(-n2cc(-c3cccc(Nc4ncnc5cc6c(cc45)OCCOCCOCCO6)c3)nn2)cc1 [compound 3b]
H1975 cells
  IC50: > 50 µM
KYSE410 cells; [1]
  IC50: 10.7 ± 0.86 µM
KYSE410 cells; KYSE410, concentration 12.5
  blank-corrected absorbance 490 nm relative to control (fraction): 0.4136
  inhibition (1 minus fraction of control): 0.5864
KYSE410 cells; KYSE410, concentration 25
  blank-corrected absorbance 490 nm relative to control (fraction): 0.4139
  inhibition (1 minus fraction of control): 0.5861
KYSE410 cells; KYSE410, concentration 50
  blank-corrected absorbance 490 nm relative to control (fraction): 0.3164
  inhibition (1 minus fraction of control): 0.6836
KYSE410 cells; KYSE410, concentration 100
  blank-corrected absorbance 490 nm relative to control (fraction): 0.1744
  inhibition (1 minus fraction of control): 0.8256
SHEE cells
  IC50: 6.03 ± 0.48 µM
EGFR; incubation 1 h, read-out: IC50 EGFR 1 h
  IC50: 3.26 µM
EGFR; incubation 2 h, read-out: IC50 EGFR 2 h
  IC50: 71.7 µM
KYSE450 cells
  IC50: 11.6 ± 1.02 µM
H1650 cells
  IC50: 7.81 ± 0.46 µM
other
  melting point: 132 to 135 °C
KYSE70 cells
  IC50: 8.85 ± 0.67 µM
KYSE70 cells; KYSE70, concentration 12.5
  blank-corrected absorbance 490 nm relative to control (fraction): 0.2939
  inhibition (1 minus fraction of control): 0.7061
KYSE70 cells; KYSE70, concentration 25
  blank-corrected absorbance 490 nm relative to control (fraction): 0.2786
  inhibition (1 minus fraction of control): 0.7214
KYSE70 cells; KYSE70, concentration 50
  blank-corrected absorbance 490 nm relative to control (fraction): 0.1882
  inhibition (1 minus fraction of control): 0.8118
KYSE70 cells; KYSE70, concentration 100
  blank-corrected absorbance 490 nm relative to control (fraction): 0.1691
  inhibition (1 minus fraction of control): 0.8309

## COc1cccc(-n2cc(-c3cccc(Nc4ncnc5cc6c(cc45)OCCOCCOCCO6)c3)nn2)c1 [compound 3i]
H1975 cells
  IC50: 19.7 ± 1.07 µM
KYSE410 cells; [1]
  IC50: > 50 µM
KYSE410 cells; KYSE410, concentration 12.5
  blank-corrected absorbance 490 nm relative to control (fraction): 0.4787
KYSE410 cells; KYSE410, concentration 25
  blank-corrected absorbance 490 nm relative to control (fraction): 0.6596
KYSE410 cells; KYSE410, concentration 50
  blank-corrected absorbance 490 nm relative to control (fraction): 1.468
KYSE410 cells; KYSE410, concentration 100
  blank-corrected absorbance 490 nm relative to control (fraction): 0.817
SHEE cells
  IC50: 28.1 ± 1.38 µM
KYSE450 cells
  IC50: 10 ± 0.93 µM
KYSE450 cells; [2]
  absorbance 490 nm, single well: 0.3641 and 0.3196 and 0.3651
  mean absorbance 490 nm (row G): 0.3496
  mean absorbance 490 nm minus background (row H): 0.2948
KYSE450 cells; [3]
  absorbance 490 nm, single well: 0.1604 and 0.1809 and 0.1731
  mean absorbance 490 nm (row G): 0.1715
  mean absorbance 490 nm minus background (row H): 0.1167
KYSE450 cells; [4]
  absorbance 490 nm, single well: 0.1052 and 0.1046 and 0.0923 and 0.1026
  mean absorbance 490 nm (row G): 0.1012
  mean absorbance 490 nm minus background (row H): 0.04637
KYSE450 cells; [5]
  absorbance 490 nm, single well: 0.0702 and 0.0745 and 0.0767 and 0.0714
  mean absorbance 490 nm (row G): 0.0732
  mean absorbance 490 nm minus background (row H): 0.0184
H1650 cells
  IC50: 6.25 ± 0.54 µM
other
  melting point: 122 to 125 °C
KYSE70 cells
  IC50: 7.02 ± 0.64 µM
KYSE70 cells; KYSE70, concentration 12.5
  blank-corrected absorbance 490 nm relative to control (fraction): 0.1099
  inhibition (1 minus fraction of control): 0.8901
KYSE70 cells; KYSE70, concentration 25
  blank-corrected absorbance 490 nm relative to control (fraction): 0.08489
  inhibition (1 minus fraction of control): 0.9151
KYSE70 cells; KYSE70, concentration 50
  blank-corrected absorbance 490 nm relative to control (fraction): 0.007475
  inhibition (1 minus fraction of control): 0.9925
KYSE70 cells; KYSE70, concentration 100
  blank-corrected absorbance 490 nm relative to control (fraction): -0.01388
  inhibition (1 minus fraction of control): 1.014

## Fc1ccc(-n2cc(-c3cccc(Nc4ncnc5cc6c(cc45)OCCOCCOCCO6)c3)nn2)cc1 [compound 3c]
H1975 cells
  IC50: > 50 µM
KYSE410 cells; [1]
  IC50: > 50 µM
SHEE cells
  IC50: 6.23 ± 0.37 µM
KYSE450 cells
  IC50: 13.8 ± 1.13 µM
H1650 cells
  IC50: 9.4 ± 0.73 µM
other
  melting point: 129 to 132 °C
KYSE70 cells
  IC50: 5.84 ± 0.36 µM

## Cc1ccccc1Cn1cc(-c2cccc(Nc3ncnc4cc5c(cc34)OCCOCCOCCO5)c2)nn1 [compound 3n]
H1975 cells
  IC50: 18.5 ± 1.43 µM
KYSE410 cells; [1]
  IC50: 8.23 ± 0.92 µM
KYSE410 cells; KYSE410, concentration 12.5
  blank-corrected absorbance 490 nm relative to control (fraction): 0.2414
  inhibition (1 minus fraction of control): 0.7586
KYSE410 cells; KYSE410, concentration 25
  blank-corrected absorbance 490 nm relative to control (fraction): 0.04668
  inhibition (1 minus fraction of control): 0.9533
KYSE410 cells; KYSE410, concentration 50
  blank-corrected absorbance 490 nm relative to control (fraction): 0.02603
  inhibition (1 minus fraction of control): 0.974
KYSE410 cells; KYSE410, concentration 100
  blank-corrected absorbance 490 nm relative to control (fraction): 0.07058
  inhibition (1 minus fraction of control): 0.9294
SHEE cells
  IC50: 8.05 ± 0.71 µM
KYSE450 cells
  IC50: 13.4 ± 0.99 µM
KYSE450 cells; [2]
  absorbance 490 nm, single well: 0.3403 and 0.3956 and 0.3877
  mean absorbance 490 nm (row G): 0.3745
  mean absorbance 490 nm minus background (row H): 0.3163
KYSE450 cells; [3]
  absorbance 490 nm, single well: 0.0581 and 0.0586 and 0.0622 and 0.0619
  mean absorbance 490 nm (row G): 0.0602
  mean absorbance 490 nm minus background (row H): 0.002
KYSE450 cells; [4]
  absorbance 490 nm, single well: 0.062 and 0.0626 and 0.0677 and 0.0632
  mean absorbance 490 nm (row G): 0.06374
  mean absorbance 490 nm minus background (row H): 0.00554
KYSE450 cells; [5]
  absorbance 490 nm, single well: 0.0608 and 0.061 and 0.0613 and 0.0611 and 0.0627
  mean absorbance 490 nm (row G): 0.06138
  mean absorbance 490 nm minus background (row H): 0.00318
H1650 cells
  IC50: 17 ± 1.27 µM
other
  melting point: 114 to 117 °C
KYSE70 cells
  IC50: 6.87 ± 0.51 µM
KYSE70 cells; KYSE70, concentration 12.5
  blank-corrected absorbance 490 nm relative to control (fraction): 0.09055
  inhibition (1 minus fraction of control): 0.9094
KYSE70 cells; KYSE70, concentration 25
  blank-corrected absorbance 490 nm relative to control (fraction): 0.002598
  inhibition (1 minus fraction of control): 0.9974
KYSE70 cells; KYSE70, concentration 50
  blank-corrected absorbance 490 nm relative to control (fraction): 0.03637
  inhibition (1 minus fraction of control): 0.9636
KYSE70 cells; KYSE70, concentration 100
  blank-corrected absorbance 490 nm relative to control (fraction): 0.0579
  inhibition (1 minus fraction of control): 0.9421
